How the values were obtained:
Type in all cases: in vivo
[1] = system: AMARE: redroot pigwseed (Amaranthus retroflexus); test: Pre-emergent Test I herbicidal activity; conditions: pre-emergence, 336 h, read-out: Visual Growth Reduction (%) 14 Days After Application, AMARE
Procedure: (§1) Pre-emergent Test I Seeds of test species were planted into round plastic pots (5-inch diameter) containing sandy loam soil. After planting, all pots were sub-irrigated 16 h prior to compound application. Compounds were dissolved in a 97:3 v/v (volume/volume) mixture of acetone and dimethyl sulfoxide (DMSO) and diluted to the appropriate concentration in a final application solution containing water, acetone, isopropanol, DMSO and Agri-dex (crop oil concentrate) in a 59:23:15:1.0:1.5 v/v ratio and 0.02% w/v (weight/volume) of Triton X-155 to obtain the spray solution containing the highest application rate. Additional application rates were obtained by serial dilution of the high rate solution with the above application solution. Formulated compound (2.7 mL) was applied pipetted evenly over the soil surface followed by incorporation with water (15 mL). Following treatment, pots were returned to the greenhouse for the duration of the experiment. The greenhouse was programmed for an approximate 15 h photoperiod which was maintained at about 23-29° C. during the day and 22-28° C. during the night. Nutrients and water were added on a regular basis through surface irrigation and supplemental lighting was provided with overhead metal halide 1000-Watt lamps as necessary. Herbicidal effect ratings were obtained 14 days after treatment. All evaluations were made relative to appropriate controls on a scale of 0 to 100 where 0 represents no herbicidal effect and 100 represents plant death or lack of emergence from the soil.

[2] = system: AVEFA: wild oats (Avena fatua); test: Pre-emergent Test I herbicidal activity; conditions: pre-emergence, 336 h, read-out: Visual Growth Reduction (%) 14 Days After Application, AVEFA
Procedure: as §1

[3] = system: ECHCG: barnyardgrass (Echinochloa crus-galli); test: Pre-emergent Test I herbicidal activity; conditions: pre-emergence, 336 h, read-out: Visual Growth Reduction (%) 14 Days After Application, ECHCG
Procedure: as §1

[4] = system: HELAN: sunflower (Helianthus annuus); test: Pre-emergent Test I herbicidal activity; conditions: pre-emergence, 336 h, read-out: Visual Growth Reduction (%) 14 Days After Application, HELAN
Procedure: as §1

[5] = system: IPOHE: ivyleaf morningglory (Ipomoea hederecea); test: Pre-emergent Test I herbicidal activity; conditions: pre-emergence, 336 h, read-out: Visual Growth Reduction (%) 14 Days After Application, IPOHE
Procedure: as §1

[6] = system: ALOMY: black-grass (Alopecurus myosuroides); test: Post-emergent Test III, herbicidal activity in wheat and barley; conditions: for pest or weed control at 35 g/ha / pest or weed control at 70 g/ha / pest or weed control at 140 g/ha: Alopecurus myosuroides, post-emergence, 504 h, read-out: Visual Growth Reduction (%) 21 Days After Application ALOMY; for pest or weed control at 35 g/ha: 35 g ai/ha; for pest or weed control at 70 g/ha: 70 g ai/ha; for pest or weed control at 140 g/ha: 140 g ai/ha; for GR50 ALOMY / GR80 ALOMY: probit analysis, 21 days after application; for GR50 ALOMY: dose for growth reduction of 50 percent; for GR80 ALOMY: dose for growth reduction of 80 percent
Procedure, shortened: (§2)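 GR20, GR50, GR80 and GR90 come from probit analysis of visual injury scores (0 = none, 100 = complete kill) taken 21 d after treatment. Foliar application was by track sprayer delivering 187 L/ha at five rates, from high down to 1/16×, onto greenhouse plants at the 2–3 leaf stage, with solvent-blank controls.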

LAMSS = test: as above; conditions: for pest or weed control at 35 g/ha / pest or weed control at 70 g/ha / pest or weed control at 140 g/ha: post-emergence, 504 h, read-out: Visual Growth Reduction (%) 21 Days After Application LAMSS; for pest or weed control at 35 g/ha: 35 g ai/ha; for pest or weed control at 70 g/ha: 70 g ai/ha; for pest or weed control at 140 g/ha: 140 g ai/ha; for GR50 LAMSS / GR80 LAMSS: probit analysis, 21 days after application; for GR50 LAMSS: dose for growth reduction of 50 percent; for GR80 LAMSS: dose for growth reduction of 80 percent
Procedure, shortened: as §2

[7] = system: VERPE: bird's-eye speedwell (veronica persica); test: as above; conditions: for pest or weed control at 35 g/ha / pest or weed control at 70 g/ha / pest or weed control at 140 g/ha: Veronica persica, post-emergence, 504 h, read-out: Visual Growth Reduction (%) 21 Days After Application VERPE; for pest or weed control at 35 g/ha: 35 g ai/ha; for pest or weed control at 70 g/ha: 70 g ai/ha; for pest or weed control at 140 g/ha: 140 g ai/ha; for GR50 VERPE / GR80 VERPE: probit analysis, 21 days after application; for GR50 VERPE: dose for growth reduction of 50 percent; for GR80 VERPE: dose for growth reduction of 80 percent
Procedure, shortened: as §2

[8] = system: SETFA: giant foxtail (Setaria faberi); test: Pre-emergent Test I herbicidal activity; conditions: pre-emergence, 336 h, 4 kg ai/ha, read-out: Visual Growth Reduction (%) 14 Days After Application, SETFA
Procedure: as §1

Row | Structure (SMILES) | pest or weed control at 35 g/ha [6] | pest or weed control at 70 g/ha [6] | pest or weed control at 140 g/ha [6] | GR50 ALOMY [6] | GR80 ALOMY [6] | pest or weed control at 35 g/ha (LAMSS) | pest or weed control at 70 g/ha (LAMSS) | pest or weed control at 140 g/ha (LAMSS) | GR50 LAMSS (LAMSS) | GR80 LAMSS (LAMSS) | pest or weed control at 35 g/ha [7] | pest or weed control at 70 g/ha [7] | pest or weed control at 140 g/ha [7] | GR50 VERPE [7] | GR80 VERPE [7] | other results
1 | COC(=O)c1nc(-c2ccc(OC(F)F)cc2)c(F)c(N)c1Cl [Compound 85] | 0 to 29% | 0 to 29% | 0 to 29% | >140 g ai/ha | >140 g ai/ha | 85 to 94% | 85 to 94% | 85 to 94% | 0 g ai/ha | 6 g ai/ha | 30 to 44% | 45 to 59% | 60 to 74% | 90 g ai/ha | >140 g ai/ha | pest or weed control at 3760 g/ha ([1]; 3.76 kg ai/ha): 95 to 100%; pest or weed control at 3760 g/ha ([2]; 3.76 kg ai/ha): 75 to 84%; pest or weed control at 3760 g/ha ([3]; 3.76 kg ai/ha): 95 to 100%; pest or weed control at 3760 g/ha ([4]; 3.76 kg ai/ha): 95 to 100%; pest or weed control at 3760 g/ha ([5]; 3.76 kg ai/ha): 30 to 44%
2 | Nc1c(F)c(-c2ccc(Br)cc2)nc(C(=O)O)c1Cl [Compound 20] | 75 to 84% | 75 to 84% | 75 to 84% | 21 g ai/ha | 72 g ai/ha | 95 to 100% | 95 to 100% | 95 to 100% | 1 g ai/ha | 1 g ai/ha | 60 to 74% | 60 to 74% | 75 to 84% | 33 g ai/ha | >140 g ai/ha | pest or weed control at 4000 g/ha ([2]; 4 kg ai/ha): 95 to 100%; pest or weed control at 4000 g/ha ([3]; 4 kg ai/ha): 95 to 100%; pest or weed control at 4000 g/ha ([4]; 4 kg ai/ha): 95 to 100%; pest or weed control at 4000 g/ha ([5]; 4 kg ai/ha): 95 to 100%; pest or weed control at 4000 g/ha [8]: 95 to 100%
3 | N#Cc1ccc(-c2nc(C(=O)O)c(Cl)c(N)c2F)cc1 [Compound 39] | 0 to 29% | 45 to 59% | 45 to 59% | 111 g ai/ha | >140 g ai/ha | 95 to 100% | 95 to 100% | 95 to 100% | 1 g ai/ha | 1 g ai/ha | 85 to 94% | 85 to 94% | 95 to 100% | 1 g ai/ha | 12 g ai/ha | pest or weed control at 2000 g/ha ([1]; 2 kg ai/ha): 95 to 100%; pest or weed control at 2000 g/ha ([2]; 2 kg ai/ha): 85 to 94%; pest or weed control at 2000 g/ha ([3]; 2 kg ai/ha): 95 to 100%; pest or weed control at 2000 g/ha ([4]; 2 kg ai/ha): 95 to 100%; pest or weed control at 2000 g/ha ([5]; 2 kg ai/ha): 95 to 100%

— patent US9113629B2, “4-amino-6-(4-substituted-phenyl)-picolinates and 6-amino-2-(4-substituted-phenyl)-pyrimidine-4-carboxylates and their use as herbicides” (DOW AGROSCIENCES LLC, priority 2013, dated 2015)
